These results are taken from ChEMBL document CHEMBL2413058, “Structure-cytotoxic activity relationship of sesquilignan, morinol A” (Bioorg Med Chem Lett, 2013).

As a reminder, the IC50 is the midpoint of a concentration-inhibition curve. The inhibition is the percentage by which the read-out fell short of the control. High values mean strong suppression, low ones little suppression.

Where only a bound is given, the exact number is not on record here.

Assay [1] has as its system HeLa. Description: Cytotoxicity against human HeLa cells after 48 hrs by WST8 assay. The assay is classed as functional, cell-based.
Assay [2] has as its system HL-60. Description: Cytotoxicity against human HL60 cells after 48 hrs by WST8 assay. The settings on record: HL-60, 48 h. The assay is classed as functional, cell-based. Background: Tetrazolium assays rely on reduction of a dye to a coloured formazan, in cell work by metabolically active cells.
The subject of assay [3] is HeLa. Description: Cytotoxicity against human HeLa cells at 100 uM after 48 hrs by WST8 assay. Format: functional.
Assay [4] relates to HeLa. Description: Ratio of IC50 for human HeLa cells to IC50 for human HL60 cells. The assay is classed as functional.
For assay [5], the system named is HL-60. Description: Cytotoxicity against human HL60 cells at 100 uM after 48 hrs by WST8 assay. Format: functional. Particulars: HL-60, 48 h.

The compound `COc1ccc(/C=C/C[C@H]2C[C@@H]([C@@H](O)c3ccc(OC)c(OC)c3)CO[C@@H]2c2ccccc2)cc1OC` gave a concentration for half-maximal inhibition (IC50) in the assay with HeLa [1] of 17 µM. Same read-out and setting: with `COc1cccc(/C=C/C[C@@H]2C[C@@H]([C@@H](O)c3ccc(OC)c(OC)c3)CO[C@H]2c2ccc(OC)c(OC)c2)c1` the figure was 16.4 µM; with `COc1cccc([C@@H]2OC[C@H]([C@@H](O)c3ccc(OC)c(OC)c3)C[C@H]2C/C=C/c2ccc(OC)c(OC)c2)c1`, 30.1 µM.

Turning to `O=[N+]([O-])c1ccccc1/C=C/C[C@H]1C[C@@H]([C@@H](O)c2ccccc2)CO[C@@H]1c1ccccc1`, the IC50 worked out at 7.25 µM with HL-60 [2] and 11.8 µM in the assay with HeLa [1]. Consider `COc1ccc(/C=C/C[C@H]2C[C@@H]([C@@H](OC)c3ccc(OC)c(OC)c3)CO[C@@H]2c2ccc(OC)c(OC)c2)cc1OC`, for which testing at 100 µM in the assay on HeLa [3] gave an inhibition of 4.8%. Also, in the assay on HeLa [1], the IC50 is above 100 µM. The matching figures for `COc1ccc(/C=C/C[C@@H]2C[C@@H]([C@@H](OC)c3ccc(OC)c(OC)c3)CO[C@H]2c2ccc(OC)c(OC)c2)cc1OC`: 34% and above 100 µM. With `COc1ccc(CCC[C@@H]2C[C@@H]([C@@H](O)c3ccc(OC)c(OC)c3)CO[C@H]2c2ccc(OC)c(OC)c2)cc1OC`, the IC50 with HeLa [1] turned out to be 35.7 µM.

Consider `COc1ccc([C@H]2OC[C@H]([C@@H](O)c3ccc(OC)c(OC)c3)C[C@@H]2C/C=C/c2ccc(OC)c(OC)c2)cc1`, for which the midpoint of inhibition in the assay on HeLa [1], the IC50, lay at 46.7 µM. In the assay on HeLa [3], `COc1ccc(/C=C/C[C@@H]2C[C@@H]([C@@H](OC(C)=O)c3ccc(OC)c(OC)c3)CO[C@H]2c2ccc(OC)c(OC)c2)cc1OC` gave an inhibition at 100 µM of 48%. The compound further showed an IC50 with HeLa [1] above 100 µM.

As to `COc1ccc([C@H](O)[C@H]2CO[C@@H](c3ccc(OC)c(OC)c3)[C@H](C/C=C/c3ccc(OC)c(OC)c3)C2)cc1`, the IC50 with HeLa [1] was found to be 32.2 µM. `COc1ccc(/C=C/C[C@H]2C[C@@H]([C@@H](O)c3ccc(OC)c(OC)c3)CO[C@@H]2c2ccc(OC)c(OC)c2)cc1` displayed an IC50 in the assay on HeLa [1] of 12.2 µM. On the same count and under the same terms, to `COc1ccc([C@H](O)[C@H]2CO[C@@H](c3ccc(OC)c(OC)c3)[C@H](C/C=C/c3ccccc3)C2)cc1OC` belongs 16.1 µM.

As to `COc1cccc(/C=C/C[C@H]2C[C@@H]([C@@H](O)c3ccccc3)CO[C@@H]2c2ccccc2)c1`, the IC50 in the assay on HL-60 [2] was found to be 9.62 µM; in the assay with HeLa [1], 10.9 µM. As for `COc1ccc(/C=C/C[C@H]2C[C@@H]([C@@H](O)c3ccccc3)CO[C@@H]2c2ccc(OC)c(OC)c2)cc1OC`, 15.5 µM corresponded to half-maximal inhibition in the assay with HeLa [1] (IC50). Still for that read-out and setting: with `COc1cccc(/C=C/C[C@H]2C[C@@H]([C@@H](O)c3ccc(OC)c(OC)c3)CO[C@@H]2c2ccc(OC)c(OC)c2)c1` the figure was 14 µM.

For the compound `COc1ccc(/C=C/C[C@H]2C[C@H]([C@H](O)c3ccc(OC)c(OC)c3)CO[C@@H]2c2ccc(OC)c(OC)c2)cc1OC`, the IC50 in the assay with HL-60 [2] was found to be 23.5 µM; in the assay on HeLa [1], 34.6 µM. With `O[C@@H](c1ccccc1)[C@H]1CO[C@H](c2ccccc2)[C@@H](C/C=C/C2CCCC2)C1`, the IC50 in the assay on HL-60 [2] came to 9.06 µM; with HeLa [1] it was 9.33 µM. Consider `O[C@@H](c1ccccc1)[C@H]1CO[C@H](c2ccccc2)[C@@H](C/C=C/c2ccccc2)C1`, for which the “Ratio IC50” value with HeLa [4] is 1.5. For the same compound, the IC50 in the assay with HL-60 [2] is 7.04 µM; with HeLa [1] it was 6.06 µM. Regarding `COc1ccc(CCC[C@H]2C[C@@H]([C@@H](O)c3ccc(OC)c(OC)c3)CO[C@@H]2c2ccc(OC)c(OC)c2)cc1OC`, in the assay on HeLa [1], inhibition was half-maximal at 37.7 µM (IC50).

Turning to `O[C@@H](c1ccccc1)[C@H]1CO[C@H](c2ccccc2)[C@@H](C/C=C/c2cccnc2)C1`, the inhibition at 100 µM with HL-60 [5] is 48%; in the assay with HeLa [3], 4%. In addition, the half-maximal inhibitory concentration (IC50) in the assay on HL-60 [2] and in the assay with HeLa [1] was above 100 µM throughout. As to `COc1ccc(/C=C/C[C@H]2C[C@@H]([C@@H](O)c3ccc(OC)c(OC)c3)CO[C@@H]2c2ccc(OC)c(OC)c2)cc1OC`, the IC50 in the assay on HL-60 [2] came out at 34.7 µM; in the assay on HeLa [1], 23.8 µM. The matching figures for `Oc1ccccc1/C=C/C[C@H]1C[C@@H]([C@@H](O)c2ccccc2)CO[C@@H]1c1ccccc1`: 10.8 µM and 21.8 µM. In turn, `COc1ccc(/C=C/C[C@H]2C[C@@H]([C@@H](OC(C)=O)c3ccc(OC)c(OC)c3)CO[C@@H]2c2ccc(OC)c(OC)c2)cc1OC` returned an inhibition at 100 µM with HeLa [3] of 29%. This compound also displayed an IC50 in the assay with HeLa [1] above 100 µM.

As to `Oc1cccc(/C=C/C[C@H]2C[C@@H]([C@@H](O)c3ccccc3)CO[C@@H]2c2ccccc2)c1`, the IC50 with HL-60 [2] is 12.8 µM; in the assay with HeLa [1] it was 18.6 µM. Regarding `C=CC[C@H]1C[C@@H]([C@@H](O)c2ccccc2)CO[C@@H]1c1ccccc1`, the IC50 in the assay with HL-60 [2] is 36 µM; in the assay on HeLa [1], 25.4 µM. The matching figures for `O[C@@H](c1ccccc1)[C@H]1CO[C@H](c2ccccc2)[C@@H](C/C=C/C2CCCCC2)C1`: 6.26 µM and 6.44 µM. For the compound `Oc1ccc(/C=C/C[C@H]2C[C@@H]([C@@H](O)c3ccccc3)CO[C@@H]2c2ccccc2)cc1`, the results for the IC50 in the assay with HL-60 [2] and in the assay with HeLa [1] were 7.38 µM and 14.4 µM, respectively. Take `Cc1ccc(/C=C/C[C@H]2C[C@@H]([C@@H](O)c3ccccc3)CO[C@@H]2c2ccccc2)cc1C`: the figures for the IC50 in the assay on HL-60 [2] and in the assay on HeLa [1] were 9.88 µM and 10 µM, respectively. In the case of `O[C@@H](c1ccccc1)[C@H]1CO[C@H](c2ccccc2)[C@@H](C/C=C/c2ccc(F)cc2)C1`, the IC50 is 8.11 µM in the assay with HL-60 [2] and 8.34 µM with HeLa [1].

`COc1ccc(/C=C/C[C@@H]2C[C@@H]([C@@H](O)c3ccc(OC)c(OC)c3)CO[C@H]2c2ccc(OC)c(OC)c2)cc1` yielded an IC50 with HeLa [1] of 17.1 µM. On the same count and under the same terms, with `COc1ccc(/C=C/C[C@@H]2C[C@@H]([C@@H](O)c3ccccc3)CO[C@H]2c2ccc(OC)c(OC)c2)cc1OC` the figure was 16.8 µM. With `O[C@@H](c1ccccc1)[C@H]1CO[C@H](c2ccccc2)[C@@H](C/C=C/c2ccccc2F)C1`, the IC50 in the assay on HL-60 [2] is 9.53 µM; in the assay with HeLa [1] it was 9.73 µM. Turning to `COc1cccc([C@H]2OC[C@H]([C@@H](O)c3ccc(OC)c(OC)c3)C[C@@H]2C/C=C/c2ccc(OC)c(OC)c2)c1`, inhibition in the assay on HeLa [1] was half-maximal at 21.8 µM (IC50). For `O[C@@H](c1ccccc1)[C@H]1CO[C@H](c2ccccc2)[C@@H](C/C=C/c2cccc(F)c2)C1`, the IC50 in the assay with HL-60 [2] is 9.17 µM; with HeLa [1], 8.38 µM. Consider `O=[N+]([O-])c1ccc(/C=C/C[C@H]2C[C@@H]([C@@H](O)c3ccccc3)CO[C@@H]2c2ccccc2)cc1`, for which the IC50 with HL-60 [2] amounted to 4.88 µM; in the assay with HeLa [1] it was 12.4 µM.

In the assay on HeLa [1], `COc1ccc([C@H](O)[C@H]2CO[C@H](c3ccc(OC)c(OC)c3)[C@@H](C/C=C/c3ccc(OC)c(OC)c3)C2)cc1` returned an IC50 of 46 µM. Compound `COc1ccc(/C=C/C[C@@H]2C[C@@H]([C@@H](O)c3ccc(OC)c(OC)c3)CO[C@H]2c2ccccc2)cc1OC` gave an IC50 with HeLa [1] of 16.1 µM. In turn, `COc1ccc(/C=C/C[C@@H]2C[C@H]([C@H](O)c3ccc(OC)c(OC)c3)CO[C@H]2c2ccc(OC)c(OC)c2)cc1OC` had an IC50 in the assay on HeLa [1] of 28.7 µM. Still for that read-out and setting: to `COc1ccc([C@H]2OC[C@H]([C@@H](O)c3ccc(OC)c(OC)c3)C[C@@H]2C/C=C/c2ccccc2)cc1OC` belongs 14.8 µM. Consider `COc1ccc(/C=C/C[C@H]2C[C@@H]([C@@H](O)c3ccccc3)CO[C@@H]2c2ccccc2)cc1`, for which the IC50 with HL-60 [2] was found to be 9.01 µM; in the assay on HeLa [1] it was 8.3 µM. Take `COc1ccc(/C=C/C[C@@H]2C[C@@H]([C@@H](O)c3ccc(OC)c(OC)c3)CO[C@H]2c2ccc(OC)c(OC)c2)cc1OC`: the IC50 was determined as 26 µM with HL-60 [2] and 30.6 µM with HeLa [1]. Consider `COc1cccc([C@H](O)[C@H]2CO[C@H](c3ccc(OC)c(OC)c3)[C@@H](C/C=C/c3ccc(OC)c(OC)c3)C2)c1`, for which the IC50 in the assay with HeLa [1] came out at 21.2 µM. Same read-out and setting: with `COc1ccc([C@@H]2OC[C@H]([C@@H](O)c3ccc(OC)c(OC)c3)C[C@H]2C/C=C/c2ccc(OC)c(OC)c2)cc1` the figure was 29.2 µM. Still for that read-out and setting: with `COc1cccc([C@H](O)[C@H]2CO[C@@H](c3ccc(OC)c(OC)c3)[C@H](C/C=C/c3ccc(OC)c(OC)c3)C2)c1` the figure was 18.6 µM. `COc1ccccc1/C=C/C[C@H]1C[C@@H]([C@@H](O)c2ccccc2)CO[C@@H]1c1ccccc1`: the figures for the IC50 with HL-60 [2] and with HeLa [1] were 10.1 µM and 14.7 µM, respectively. The matching figures for `O=[N+]([O-])c1cccc(/C=C/C[C@H]2C[C@@H]([C@@H](O)c3ccccc3)CO[C@@H]2c2ccccc2)c1`: 6.35 µM and 7.85 µM.

Regarding `O[C@@H](c1ccccc1)[C@H]1CO[C@H](c2ccccc2)[C@@H](C/C=C/c2ccccn2)C1`, the IC50 with HL-60 [2] is 36.4 µM; in the assay on HeLa [1], 33.8 µM. `O[C@@H](c1ccccc1)[C@H]1CO[C@H](c2ccccc2)[C@@H](C/C=C/c2ccncc2)C1`: the results for the inhibition at 100 µM in the assay on HL-60 [5] and in the assay with HeLa [3] were 13% and 34%, respectively. Also, the IC50 with HL-60 [2] and in the assay with HeLa [1] was above 100 µM in each case. On to `CCCCCC/C=C/C[C@H]1C[C@@H]([C@@H](O)c2ccccc2)CO[C@@H]1c1ccccc1`, for which the results for the IC50 in the assay on HL-60 [2] and in the assay on HeLa [1] were 4.99 µM and 7.4 µM, respectively.
